Patent EP0369733A2, “Fluorescent indicator dyes for alkali metal cations, their preparation and use” (THE REGENTS OF THE UNIVERSITY OF CALIFORNIA, priority 1988, dated 1990)

Tests used:
physchem [1] = settings: 126 mm kcl, 14 mm nacl
Procedure: The lowest curve ([Na⁺] = 0) was obtained with 5 µM SBFI in 130 mM KCl, 10 mM MOPS, KOH to pH 7.05, approximately 135 mM total K⁺. The highest curve ([Na⁺] = 135 mM) was analogously recorded from 5 µM SBFI in 130 mM NaCl, 10 mM MOPS, NaOH to pH 7.05. The intermediate curves from 1.35 to 94.5 mM Na⁺ were obtained by successively 1/100, 1/99, 3/98, 1/19, 1/9, 1/4, and 1/2 of the K⁺-rich SBFI solution by the SBFI in Na medium. The excitation bandwidth was 1.85 nm; emission was collected at 500 nm with 9.3 nm bandwidth. […] The lowest curve was obtained in 130 mM NaCl, 10 mM MOPS, NaOH to pH 7.05. The highest curve was in 130 mM KCl, 10 mM MOPS, KOH to pH 7.05. The intermediate curves with 13.5 to 112.5 mM K⁺ were obtained by iteratively replacing 1/10, 1/9, 1/6, 1/4, 1/3, and 1/2 of the low K⁺ medium by the 135 mM KCl solution of PBFP.
Proton dissociation constants of the chelators were measured by spectrophotometry or spectrofluorometry of buffered solutions, containing either 100 mM tetramethylammonium chloride as inert supporting electrolyte, or 121.5 mM K⁺, 13.5 mM Na⁺, and 1 mM Mg²⁺ to simulate the cation environment of vertebrate cytoplasm (14). […] When the chelators contained two protonatable nitrogens, the curve of absorbance or fluorescence versus pH was analyzed by computerized least-squares fitting to the equations for two arbitrary proton equilibria (15), with the added assumption that the two protonations each caused the same change in extinction coefficient or fluorescence. This assumption was based on the presence of two identical chromophores in each chelator and produced good fits to the experimental data.

[2] = Cation titration followed by absorbance or fluorescence excitation spectra: Na⁺ binding
physchem [3] = settings: 0.1 m tetramethylammonium chloride
Procedure: (§1) • Footnote a: For molecular structures, see Fig. 1. • Footnote b: Except where otherwise noted, these dissociation constants were measured with the chelator dissolved in 0.1 M tetramethylammonium chloride, at a pH held high enough with 1-5 mM tris(hydroxymethyl)aminomethane for protonation to be insignificant. […] No correction has been made for the changing ionic strength of the solution, which started from 0.1 M and increased, but the absorbances and fluorescence amplitudes were applied for dilution of the dye and any slight quenching due to high concentrations of Cl⁻. • Footnote c: These protonation constants were determined in 0.1 M tetramethylammonium chloride, 10 mM tris(hydroxymethyl)aminomethane, titrated with 5 M H₃PO₄ to successively lower pH values measured with a Radiometer PHM84 meter.
(§2) Proton dissociation constants of the chelators were measured by spectrophotometry or spectrofluorometry of buffered solutions, containing either 100 mM tetramethylammonium chloride as inert supporting electrolyte, or 121.5 mM K⁺, 13.5 mM Na⁺, and 1 mM Mg²⁺ to simulate the cation environment of vertebrate cytoplasm (14). Traces of UV-absorbing impurities in the tetramethylammonium chloride (Alfa Inorganics) were removed by filtration through acid-­washed activated charcoal. The concentration of the tetramethylammonium chloride was then measured by chloride titration, and the absence of significant Na⁺ contamination was verified with a sodium-selective glass electrode (Microelectrodes Inc.). When the chelators contained two protonatable nitrogens, the curve of absorbance or fluorescence versus pH was analyzed by computerized least-squares fitting to the equations for two arbitrary proton equilibria (15), with the added assumption that the two protonations each caused the same change in extinction coefficient or fluorescence.

[4] = UV absorbance spectra without and with saturating cation; assay type: physicochemical
[5] = Proton dissociation constants in 0.1 M tetramethylammonium chloride; settings: 10 mM Tris titrated with 5 M H₃PO₄
Procedure: as §1, §2

[6] = Cation titration followed by absorbance or fluorescence excitation spectra: Ca²⁺ binding; settings: 0.1 M tetramethylammonium chloride, 1-5 mM tris(hydroxymethyl)aminomethane, high pH, read-out: Dissociation constants (Kd) in mM for Ca²⁺
Procedure: • Footnote a: For molecular structures, see Fig. 1. • Footnote b: Except where otherwise noted, these dissociation constants were measured with the chelator dissolved in 0.1 M tetramethylammonium chloride, at a pH held high enough with 1-5 mM tris(hydroxymethyl)aminomethane for protonation to be insignificant. The absorbance spectrum, or the fluorescence excitation spectrum for those compounds (2GG, 2NN, 2OO, 2PP, 3NN) with acronyms was measured as a function of the concentration of cation added as a solid or concentrated aqueous solution of the halide salt. No correction has been made for the changing ionic strength of the solution, which started from 0.1 M and increased, but the absorbances and fluorescence amplitudes were applied for dilution of the dye and any slight quenching due to high concentrations of Cl⁻. • Footnote c: These protonation constants were determined in 0.1 M tetramethylammonium chloride, 10 mM tris(hydroxymethyl)aminomethane, titrated with 5 M H₃PO₄ to successively lower pH values measured with a Radiometer PHM84 meter. […] The first number is the wavelength in nanometers, followed in parentheses by 10⁻³ x the corresponding extinction coefficient, M⁻¹cm⁻¹. […] Emission maxima are not corrected for the spectral sensitivity of the emission detection. Quantum efficiencies were measured (13) by comparing the integral of the corrected emission spectrum with the corresponding integral for a solution of quinine bisulfate in 1 N H₂SO₄ of matched absorbance at the excitation wavelength.
Affinities for other cations were usually measured by titrating aqueous solutions of the indicator with metal chlorides added either as solid or from concentrated stock solutions, taking care to minimize dilution and correct for it. A convenient way to mass-produce premeasured micromole to millimole aliquots of solid NaCl or KCl was to pipet saline solutions into polypropylene micro test tubes and evaporate the water in an oven. The standard ionic background was again 100 mM tetramethylammonium chloride, usually with a few mM of tris(hydroxymethyl)-aminomethane base to hold the pH high enough (pH 8-9) to insure that protonation was negligible. This convenient titration procedure had the slight disadvantage that the ionic strength was not constant, especially when large quantities of a salt had to be added due to weak affinities. […] When constant ionic strength was desired, the chelator was made up at identical concentrations in matched solutions of NaCl, KCl, or tetramethylammonium chloride, then these stocks were mixed in the desired proportions. All measurements were made at room temperature (22°, ±2° C).

[7] = Non-specific quenching of fluorescence by CsCl; assay type: physicochemical
Procedure: Selectivities of SBFP and SBFI against other cations are also adequate (Table I). […] Ratioing therefore not only normalizes for amount of dye in the optical path but also improves the discrimination against pH changes. […] Dissociation constants for Mg²⁺ and Ca²⁺ are high enough (about 60 mM and 38 mM respectively) for cytosolic levels of those ions to have insignificant effect. Curiously, Ca²⁺ is unique in causing a large hypsochromic shift of the emission peak, to 432 nm. All the above-mentioned salts except tetramethylammonium seem to cause a slight non-specific quenching of SBFI at very high concentrations. For example, CsCl causes no spectral shift at all, but 100, 200, and 500 mM CsCl depress the fluorescence by 9, 14, and 21% from the metal-free level. This effect is not a heavy-atom effect of Cs, since large excesses of Li⁺, Na⁺, and K⁺ also slightly quench their SBFI complexes. It may represent weak quenching by Cl⁻, since acetate and fluoride gave much less of the effect.

In the case of `COc1cc2cc(-c3ccc(C(=O)O)cc3C(=O)O)oc2cc1N1CCOCCOCCN(c2cc3oc(-c4ccc(C(=O)O)cc4C(=O)O)cc3cc2OC)CCOCC1` [Compound 2PP, N,N-bis-(2-(2,4-dicarboxyphenyl)-5-methoxybenzofuran-6-yl)-diaza[15]-crown-5], the pKa (physchem [1]) is reported as 6.09, the Kd ([2]; 0.1 M tetramethylammonium chloride, 1-5 mM tris(hydroxymethyl)aminomethane, pH high enough for protonation to be insignificant, 22°, read-out: Dissociation constants (Kd) in mM for Na⁺) is reported as 7.4 mM and the “Na⁺ affinity” value ([2]; association constant, inert background cation (tetramethylammonium)) is reported as 166 M⁻¹. For the same compound, the Kd ([2]; summary statement, conditions not specified, read-out: dissociation constant (Na⁺), range achieved) was 5 to 20 mM, the pKa (physchem [3]) was 6.1 and the “Absorbance maxima -Na⁺ (wavelength)” value ([4]; 100 mM tetramethylammonium chloride plus 1-5 mM Tris, no Na⁺) was 346 nanometers. For the same compound, the “Absorbance maxima +Na⁺ (wavelength)” value ([4]; enough NaCl added (0.2-1 M) to saturate the Na⁺ binding) was 334 nanometers, the Absorbance maxima -Na⁺ (extinction coefficient) ([4]; number is 10⁻³ x the extinction coefficient, lower limits for most compounds, no Na⁺) was 42000 M⁻¹ cm⁻¹ and the Absorbance maxima +Na⁺ (extinction coefficient) ([4]; number is 10⁻³ x the extinction coefficient, lower limits, saturating NaCl (0.2-1 M)) was 47000 M⁻¹ cm⁻¹. The extinction coefficients ([4]; without to with Na⁺, in M-1·cm-1 (unit assumed)) was 42,000-47,000, the pKa ([5]; first value printed (highest pKa, 1st proton), listed as 2PP (SBFI)) was 5.89 and the pKa ([5]; second value (second protonation)) was 5.19. For the same compound, the Kd ([6]; listed as 2PP (SBFI)) was 38 mM, the Kd ([6]; listed as SBFI) was ~38 mM and the “depression of fluorescence from the metal-free level” value ([7]; 100 mM CsCl) was 9%. For the same compound, the “depression of fluorescence from the metal-free level” value ([7]; 200 mM CsCl) was 14% and the “depression of fluorescence from the metal-free level” value ([7]; 500 mM CsCl) was 21%.
